Results on eight molecules are retold here after patent publication US8071142B2, “Anti-bacterial use of extract from Morus australis poir. and compound kuwanon h” (Medical and Pharmaceutical Industry Technology and …, priority 2008, dated 2011).

Assay type in all cases: cell-based
The subject of test [1] is Staphylococcus aureus, Methicillin Resistant (ATCC 33591). As to the kind of experiment: Anti-microbial test, MIC by broth dilution method, methicillin resistant Staphylococcus aureus. The following applies: for MIC: Staphylococcus aureus, ATCC 33591 / MRSA, read-out: MIC MRSA. How it is done:
(§1) Staphylococcus aureus (Smith), and Staphylococcus aureus, Methicillin Resistant (ATCC 33591), In Vitro Bacteria
(§2) Minimum inhibitory concentration (MIC) of sample on Staphylococcus aureus (Smith) and Staphylococcus aureus, Methicillin Resistant (ATCC 33591) was determined by the broth dilution method [Edwards J. R. et al. In vitro antibacterial activity of SM-7338, a carbapenem antibiotic with stability to dehydropeptidase I. Antimicrobial Agents Chemotherapy. 33: pp. 215-222, 1989]. The test substance was dissolved (generally 100% DMSO) and serially diluted in solvent to desired stock concentrations. For each concentration tested, a 0.01 ml aliquot (1% DMSO final concentration) was added to a 48-well plate after which 0.99 ml of Mueller-Hinton Broth (DIFCO, USA.) with 1-5×10^5 CFU/ml of Staphylococcus aureus (Smith) or Staphylococcus aureus, Methicillin Resistant (ATCC 33591) was added. Thus, final maximal concentration of DMSO was 1% and the initial test substance concentration was 100 μg/ml or 30 μM. The plates were incubated at 37° C. for 20 hours and then visually examined and scored positive (+) for inhibition of growth or turbidity or negative (−) for no effect upon growth or turbidity. Vehicle-control and active reference agents were used as blank and positive controls, respectively. Each concentration was evaluated in duplicate.

The test system of test [2] is Staphylococcus aureus (Smith). As to the kind of experiment: Anti-microbial test, MIC by broth dilution method, Staphylococcus aureus (Smith). The conditions noted are these: for MIC: Staphylococcus aureus, read-out: MIC SA (Smith). Here is the method: as §1, §2
The test system of test [3] is Streptococcus pneumoniae (ATCC 6301). As to the kind of experiment: Anti-microbial test, MIC by broth dilution method, Streptococcus pneumoniae. The following applies: for MIC: Streptococcus pneumoniae, read-out: MIC SP. How it is done: (§3) Streptococcus pneumoniae (ATCC 6301) and Streptococcus pneumoniae (Erythromycin and Ampicillin Res. Clin. Isol.), In Vitro Bacteria
(§4) Minimum inhibitory concentration (MIC) of sample on Streptococcus pneumoniae and Streptococcus pneumoniae (Erythromycin and Ampicillin Res. Clin. Isol.) was determined by the broth dilution method [Edwards J. R. et al. In vitro antibacterial activity of SM-7338, a carbapenem antibiotic with stability to dehydropeptidase I. Antimicrobial Agents Chemotherapy. 33: pp. 215-222, 1989.]. The test substance was dissolved (generally 100% DMSO) and serially diluted in solvent to desired stock concentrations. For each concentration tested, a 0.01 ml aliquot (1% DMSO final concentration) was added to a 48-well plate after which 0.99 ml of Tryptic Soy Broth (DIFCO, U.S.A.) containing 7% fetal bovine serum with 1-5×10^5 CFU/ml of Streptococcus pneumoniae (ATCC 6301) or Streptococcus pneumoniae (Erythromycin and Ampicillin Res. Clin. Isol.) was added. Thus, final maximal concentration of DMSO was 1% and the initial test substance concentration was 100 μg/ml or 30 μM. The plates were incubated at 37° C. for 20 hours and then visually examined and scored positive (+) for inhibition of growth or turbidity or negative (−) for no effect upon growth or turbidity. Vehicle-control and active reference agents were used as blank and positive controls, respectively. Each concentration was evaluated in duplicate.

Test [4] relates to Streptococcus pneumoniae (Erythromycin and Ampicillin Res. Clin. Isol.). The test is described as follows: Anti-microbial test, MIC by broth dilution method, resistant Streptococcus pneumoniae. The conditions noted are these: for MIC: Streptococcus pneumoniae, read-out: MIC SP (EM & AM Res.). How it is done: as §3, §4
Setting [5] is: Mueller-Hinton Broth, 37° C., 20 hours, 1% DMSO, visual growth/turbidity.
The mark [6] stands for this setting: ATCC6301, Tryptic Soy Broth with 7% fetal bovine serum, 37° C., 20 hours, 1% DMSO.
Where [7] appears, read: clinical isolates, Tryptic Soy Broth with 7% fetal bovine serum, 37° C., 20 hours, 1% DMSO.

Values after ≈ are worked out from the molar mass of the structure shown. Like-named read-outs stand apart in the source and are kept apart here.

Consider `CC1=CC(c2c(O)cc(-c3cc4ccc(O)cc4o3)cc2O)C(C(=O)c2ccc(O)cc2O)[C@H](c2ccc(O)cc2O)C1` (stereo partly drawn) [P2-1], for which the MIC is more than 100 µg/mL in test [1] (20 h); 3 µg/mL (≈ 5.17 µM) in test [2] (20 h); 100 µg/mL (≈ 172 µM) in test [3] (ATCC6301, 20 h); 30 µg/mL (≈ 51.7 µM) in test [4] (20 h).
On the same counts, the results for `CC(C)=CCC/C(C)=C/Cc1c(O)ccc2cc(-c3cc(O)cc(O)c3CC=C(C)C)oc12` [P3-4] are 100 µg/mL (≈ 224 µM), 3 µg/mL (≈ 6.72 µM), 30 µg/mL (≈ 67.2 µM) and 10 µg/mL (≈ 22.4 µM).
With `CC(C)=CCc1c(O)ccc(C(=O)C2C(c3c(O)cc(O)c4c(=O)c(CC=C(C)C)c(-c5ccc(O)cc5O)oc34)C=C(C)CC2c2ccc(O)cc2O)c1O` (stereo not drawn) [P3-2, 8-[6-[2,4-dihydroxy-3-(3-methyl-but-2-enyl)-benzoyl]-5-(2,4-dihydroxy-phenyl)-3-methyl-cyclohex-2-enyl]-2-(2,4-dihydroxy-phenyl)-5,7-dihydroxy-3-(3-methyl-but-2-enyl)-chromen-4-one], the MIC worked out at 0.3 µg/mL (≈ 0.394 µM) in test [1] (setting [5]), 0.3 µg/mL (≈ 0.394 µM) in test [2] (setting [5]), 10 µg/mL (≈ 13.1 µM) in test [3] (setting [6]) and 10 µg/mL (≈ 13.1 µM) in test [4] (setting [7]).
As for `CC1(C)S[C@@H]2[C@H](NC(=O)[C@H](N)c3ccccc3)C(=O)N2[C@H]1C(=O)O` [Ampicillin, reference compound], the minimal inhibitory concentration (MIC) in test [1] (setting [5]) was determined as 30 µg/mL (≈ 85.9 µM); in test [2] (setting [5]), 0.1 µg/mL (≈ 0.286 µM); in test [3] (setting [6]), 0.01 µg/mL (≈ 0.0286 µM); in test [4] (setting [7]), 3 µg/mL (≈ 8.59 µM).
On the same counts, the results for `CC(C)=CCCC1=CC(c2c(O)cc3c(c2O)C(=O)CC(c2ccc(O)cc2O)O3)C(C(=O)c2ccc(O)cc2O)C(c2ccc(O)cc2O)C1` (stereo not drawn) [P3-1] are 3 µg/mL (≈ 4.32 µM), 1 µg/mL (≈ 1.44 µM), 30 µg/mL (≈ 43.2 µM) and 10 µg/mL (≈ 14.4 µM).
Taken in the same sequence, the figures for `CC(C)=CCc1c(-c2ccc(O)cc2O)oc2c3c(cc(O)c2c1=O)OC(C)(C)C=C3` [P3-3, 2-(2,4-dihydroxy-phenyl)-5-hydroxy-8,8-dimethyl-3-(3-methyl-but-2-enyl)-8H-pyrano[2,3-f]chromen-4-one] were 100 µg/mL (≈ 238 µM), 10 µg/mL (≈ 23.8 µM), 100 µg/mL (≈ 238 µM) and 30 µg/mL (≈ 71.4 µM).
As to Gentamicin [reference compound], in test [1] (setting [5]), the “MIC MRSA” value came to 1 µg/mL. The “MIC on MRSA relative to MIC on SA (Smith)” value in test [1] (ratio MRSA / SA (Smith)) turned out to be 10 times. Moreover, the “MIC SA (Smith)” value in test [2] (setting [5]) is 0.1 µg/mL. Moreover, the “MIC SP” value in test [3] (Tryptic Soy Broth with 7% fetal bovine serum, 37° C., 20 hours, 1% DMSO) is 100 µg/mL. For the same molecule, the “MIC SP (EM & AM Res.)” value in test [4] (setting [7]) amounted to 100 µg/mL.
For `CC(C)=CCc1c(-c2ccc(O)cc2O)oc2c(C3C=C(C)C[C@@H](c4ccc(O)cc4O)C3C(=O)c3ccc(O)cc3O)c(O)cc(O)c2c1=O` (stereo partly drawn) [P2-2], the minimum inhibitory concentration (MIC) was more than 100 µg/mL in test [1] (20 h); 3 µg/mL (≈ 4.33 µM) in test [2] (20 h); 30 µg/mL (≈ 43.3 µM) in test [3] (ATCC6301, 20 h); 30 µg/mL (≈ 43.3 µM) in test [4] (setting [7]).
